Experimental findings from BindingDB's records for doi:10.1038/nchembio.2007.34 (GlaxoSmithKline, 2007) are described below.

In the assay the target is T1, Kinesin-like protein KIF11 (Homo sapiens, UniProt P52732).
T1 sequence (P52732 whole entry): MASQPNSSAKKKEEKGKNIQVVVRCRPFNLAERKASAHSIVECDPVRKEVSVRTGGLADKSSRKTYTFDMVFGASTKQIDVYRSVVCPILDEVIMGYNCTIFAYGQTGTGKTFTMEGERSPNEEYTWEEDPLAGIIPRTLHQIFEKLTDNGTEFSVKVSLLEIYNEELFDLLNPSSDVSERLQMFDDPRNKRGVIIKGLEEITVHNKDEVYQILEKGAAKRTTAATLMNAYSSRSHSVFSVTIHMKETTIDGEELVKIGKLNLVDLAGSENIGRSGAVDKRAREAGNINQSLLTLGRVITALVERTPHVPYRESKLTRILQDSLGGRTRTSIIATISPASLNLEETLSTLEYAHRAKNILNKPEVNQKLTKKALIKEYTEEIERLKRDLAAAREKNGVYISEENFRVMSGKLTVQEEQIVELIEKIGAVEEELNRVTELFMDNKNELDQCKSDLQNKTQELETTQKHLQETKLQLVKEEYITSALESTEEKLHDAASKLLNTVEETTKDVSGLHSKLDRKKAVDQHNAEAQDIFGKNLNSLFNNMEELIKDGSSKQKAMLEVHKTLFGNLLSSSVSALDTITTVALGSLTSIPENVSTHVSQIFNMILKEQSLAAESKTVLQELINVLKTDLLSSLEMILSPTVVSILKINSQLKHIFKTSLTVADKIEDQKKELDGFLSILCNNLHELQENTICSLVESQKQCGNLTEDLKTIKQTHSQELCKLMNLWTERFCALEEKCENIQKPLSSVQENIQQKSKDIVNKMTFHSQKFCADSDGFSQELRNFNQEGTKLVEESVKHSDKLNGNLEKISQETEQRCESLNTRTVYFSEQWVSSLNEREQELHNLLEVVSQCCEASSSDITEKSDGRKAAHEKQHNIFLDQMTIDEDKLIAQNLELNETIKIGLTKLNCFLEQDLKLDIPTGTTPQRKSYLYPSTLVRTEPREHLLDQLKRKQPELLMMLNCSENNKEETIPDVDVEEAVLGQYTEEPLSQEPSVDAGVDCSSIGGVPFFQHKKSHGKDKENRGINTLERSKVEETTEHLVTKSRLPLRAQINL
In words: Wild-type HCT116. The following applies: pH 6.8. The source says: Cell proliferation assay for wild-type cells

One may read the Ki as a measure of affinity in units of concentration, obtained from inhibition or displacement. Read a high Ki as a looser hold on the target. In turn, `O=C1CCc2cc(-c3ccc(C(F)(F)F)cc3)ccc2N1` [6-[4-(Trifluoromethyl)phenyl]-3,4-dihydro-2(1H)-quinolinone] displayed a Ki of 1.7 nM.
